In brackets after ≈: the same amount, converted by molar mass. Where two headings read alike, the source gives them in different places.
Legend:
[1] = system: Plasmodium falciparum K1; assay: microbe, parasite or virus in culture; type: cell-based; conditions: for EC50: Plasmodium falciparum, K1, read-out: EC50 P. falc.; for EC50 (P. falciparum K1): values in nM; for decrease in EC50 value relative to the unsubstituted analogue 56 / drop / loss in activity (fold): P. falciparum K1; for decrease in EC50 value relative to the unsubstituted analogue 56: relative to 56; for drop / loss in activity (fold): C-ring variants, comparator not stated explicitly
Experimental: (§1) V. Design and Results of the in vitro & in vivo Studies.
A. Drug inhibition of in vitro cultured P. falciparum parasite:2 All in vitro assays were carried out twice independently. In vitro activity against the erythrocytic stages of P. falciparum was determined by using a 3H-hypoxanthine incorporation assay,5-6 using the […]
were dissolved in DMSO at 10 mg/mL and added to parasite cultures incubated in RPMI […]
haematocrit (0.3% parasitaemia). Serial doubling dilutions of each drug were prepared in […]
After 48 h, 50 µL of 3H-hypoxanthine (= 0.5 µCi) was added to each well of the plate. The plates were incubated for an additional 24 h under the same conditions. The plates were then harvested with a Betaplate cell harvester (Wallac, Zurich, Switzerland), and the red blood cells were transferred onto a glass fiber filter and then washed with distilled water. The dried filters were inserted into a plastic foil with 10 mL of scintillation fluid and were counted in a Betaplate™ liquid scintillation counter (Wallac, Zurich, […]

[2] = system: L6 cells; assay: In vitro cytotoxicity assay in L6 cells (Alamar Blue); type: cell-based; conditions: Rattus norvegicus
Experimental: as §1
A. Drug inhibition of in vitro cultured P. falciparum parasite:2 All in vitro assays were carried out twice independently. In vitro activity against the erythrocytic stages of P. […]
B. In vitro cytotoxicity assay:2 Assays were performed in 96-well microtiter plates, each […]
mM) and 10% fetal bovine serum, and 4 x 10^4 L-6 cells (a primary cell line derived from rat skeletal myoblasts). Serial drug dilutions of seven 3-fold dilution steps covering a range […]
After 72 h of incubation the plates were inspected […]
of Alamar Blue was then added to each well and the plates incubated for another 2 h.
Then the plates were read with a Spectramax Gemini XS microplate fluorometer (Molecular Devices Cooperation, Sunnyvale, CA, USA) using an excitation wave length of […]
Data were analysed using the microplate reader software Softmax Pro (Molecular Devices Cooperation, Sunnyvale, CA, USA).

[3] = Aqueous solubility estimated by nephelometry; type: physicochemical; conditions: kinetic from dmso stock
Experimental: III. Physicochemical Evaluation […]
Solubility Estimation: Aqueous solubility was estimated by nephelometry.
Compound in DMSO was spiked into either water, pH 6.5 phosphate buffer or 0.01N HCl
(approx. pH 2.0) with the final DMSO concentration being 1%. Samples were then
analyzed by Nephelometry to determine the solubility range as described previously.1

[4] = Table 1, A-ring variants, mammalian L6 cells, mean of two independent assays, read-out: EC50 L6 cells
[5] = aqueous buffer, pH 6.5 phosphate buffer, nephelometry, 1% DMSO, read-out: Solubility pH 6.5
[6] = simulated gastric fluid, pH 2.0 (0.01N HCl), nephelometry, 1% DMSO, read-out: Solubility pH 2.0
[7] = Table 2, C-ring variants, L6 cells, mean of two independent assays, read-out: EC50 L6 cells
[8] = Table 2, water, read-out: Solubility water
[9] = Table 1, water, nephelometry, 1% DMSO, read-out: Solubility water

CCOC(=O)C1=C(C)N/C(=C/c2cc(C)n(C3CCN(Cc4cc(C)on4)CC3)c2C)C1=O [Compound 47]
EC50 [1]: 100 nM
EC50 [2, 4]: 42000 nM
melting point: 185 to 188 °C

CCOC(=O)C1=C(C)N/C(=C/c2cc(C)n(C3CCN(Cc4ccc(N5CCOCC5)nc4)CC3)c2C)C1=O [Compound 52]
EC50 [1]: 1500 nM
EC50 [2, 4]: 50000 nM
melting point: > 280 °C

CCOC(=O)C1=C(C)N/C(=C/c2cc(C)n(C3CCN(CCc4ccc(OC)cc4)CC3)c2C)C1=O [Compound 32]
EC50 [1]: 83 nM
EC50 [2, 4]: 72000 nM
solubility [3, 5]: 25 to 51 µM (≈ 12.3 to 25.1 µg/mL)
solubility [3, 6]: 100 to 200 µM (≈ 49.2 to 98.3 µg/mL)

CCOC(=O)C1=C(C)N/C(=C/c2cc(C)n(C3CCN(CCC(C)C)CC3)c2C)C1=O [Compound 21]
EC50 [1]: 190 nM
EC50 [2, 4]: 22000 nM
melting point: 158 to 162 °C

Cc1cc(/C=C2/Nc3ccn(Cc4ccc(C(F)(F)F)cc4)c(=O)c3C2=O)c(C)n1-c1ccccc1C(F)(F)F [Compound 63]
EC50 [1]: 46 nM
EC50 [2, 7]: 54000 nM
solubility [3, 8]: 89 µM (≈ 49.6 µg/mL)
melting point: 235 to 240 °C

CCOC(=O)C1=C(C)N/C(=C/c2cc(C)n(C3CCN(Cc4ccc(F)cc4C(F)(F)F)CC3)c2C)C1=O [Compound 44]
EC50 [1]: 0.4 nM
EC50 (P. falciparum K1) [1]: sub-nanomolar
EC50 [2, 4]: 1200 nM
solubility [3, 9]: > 125 µM
melting point: 145 to 148 °C

CCOC(=O)C1=C(C)N/C(=C/c2cc(C)n(C3CCN(C(C)c4ccccc4C(F)(F)F)CC3)c2C)C1=O (centres unmarked) [Compound 36]
EC50 [1]: 1 nM
EC50 [2, 4]: 3000 nM
solubility [3, 9]: > 125 µM
melting point: 138 to 142 °C

CCOC(=O)C1=C(C)N/C(=C/c2cc(C)n(C3CCN(Cc4cccn4C)CC3)c2C)C1=O [Compound 50]
EC50 [1]: 12 nM
EC50 [2, 4]: 3000 nM
melting point: 190 to 194 °C

Cc1cc(/C=C2/Nc3ccn(CCN4CCOCC4)c(=O)c3C2=O)c(C)n1-c1ccccc1C(F)(F)F [Compound 60]
decrease in EC50 value relative to the unsubstituted analogue 56 [1]: fivefold
EC50 [1]: 230 nM
EC50 [2, 7]: 65000 nM
melting point: 180 to 185 °C

CCOC(=O)C1=C(C)N/C(=C/c2cc(C)n(C3CCN(Cc4ccc(F)cc4F)CC3)c2C)C1=O [Compound 27]
EC50 [1]: 23 nM
EC50 [2, 4]: 23000 nM
solubility [3, 9]: > 125 µM

CCCn1ccc2c(c1=O)C(=O)/C(=C\c1cc(C)n(-c3ccccc3C(F)(F)F)c1C)N2 [Compound 59]
drop / loss in activity (fold) [1]: tenfold
EC50 [1]: 150 nM
EC50 [2, 7]: 34000 nM
melting point: 180 to 185 °C

CCOC(=O)C1=C(C)N/C(=C/c2cc(C)n(C3CCN(Cc4ncc[nH]4)CC3)c2C)C1=O [Compound 46]
EC50 [1]: 1200 nM
EC50 [2, 4]: 28000 nM
melting point: 185 to 190 °C

CCOC(=O)C1=C(C)N/C(=C/c2cc(C)n(C3CCN(CCc4ccccc4)CC3)c2C)C1=O [Compound 31]
EC50 [1]: 320 nM
EC50 [2, 4]: 107000 nM

CCOC(=O)C1=C(C)N/C(=C/c2cc(C)n(C3CCN(Cc4ccc(F)cc4)CC3)c2C)C1=O [Compound 26]
EC50 [1]: 24 nM
EC50 [2, 4]: 51000 nM
solubility [3, 9]: > 125 µM

CCOC(=O)C1=C(C)N/C(=C/c2cc(C)n(C3CCN(Cc4ccc(C(F)(F)F)cc4)CC3)c2C)C1=O [Compound 28]
EC50 [1]: 2 nM
EC50 [2, 4]: 5000 nM
solubility [3, 5]: 6 to 12 µM (≈ 3.09 to 6.19 µg/mL)
solubility [3, 9]: > 125 µM
solubility [3, 6]: 48 to 97 µM (≈ 24.7 to 50 µg/mL)

COc1cc([C@@H]2c3cc4c(cc3[C@H](O)[C@H]3COC(=O)[C@H]23)OCO4)cc(OC)c1OC [podophyllotoxin, reference compound]
EC50 ([2]; L6, read-out: EC50 L6 cells): 9 to 22 nM

CCOC(=O)C1=C(C)N/C(=C/c2cc(C)n(C3CCNCC3)c2C)C1=O [Compound 18]
EC50 [1]: 12000 nM
EC50 [2, 4]: > 250000 nM
melting point: > 250 °C

CCOC(=O)C1=C(C)N/C(=C/c2cc(C)n(C3CCN(CCc4ccc(F)cc4)CC3)c2C)C1=O [Compound 34]
EC50 [1]: 96 nM
EC50 [2, 4]: 22000 nM
solubility [3, 5]: 13 to 26 µM (≈ 6.23 to 12.5 µg/mL)
solubility [3, 6]: 52 to 100 µM (≈ 24.9 to 48 µg/mL)

CCOC(=O)C1=C(C)N/C(=C/c2cc(C)n(C3CCN(C(C)c4ccc(C(F)(F)F)cc4)CC3)c2C)C1=O (centres unmarked) [Compound 35]
EC50 [1]: 7 nM
EC50 [2, 4]: 4260 nM

CCOC(=O)C1=C(C)N/C(=C/c2cc(C)n(C3CCN(Cc4ccn(C)n4)CC3)c2C)C1=O [Compound 45]
EC50 [1]: 150 nM
EC50 [2, 4]: 36000 nM
melting point: 180 to 184 °C

CCOC(=O)C1=C(/C=C/N(C)C)N/C(=C/c2cc(C)n(-c3ccccc3C(F)(F)F)c2C)C1=O [Compound 55, (E)-Ethyl 5-((2,5-dimethyl-1-(2-(trifluoromethyl)phenyl)-1H-pyrrol-3-yl)methylene)-2-((E)-2-(dimethylamino)vinyl)-4-oxo-4,5-dihydro-1H-pyrrole-3-carboxylate]
EC50 [1]: 61 nM
EC50 [2, 7]: 56000 nM
solubility [3, 8]: > 125 µM

CCOC(=O)C1=C(C)N/C(=C/c2cc(C)n(C3CCN(CC4CCOCC4)CC3)c2C)C1=O [Compound 41]
EC50 [1]: 110 nM
EC50 [2, 4]: 43000 nM
melting point: 180 to 183 °C

CCOC(=O)C1=C(C)N/C(=C/c2cc(C)n(C3CCN(CC4CCN(C)CC4)CC3)c2C)C1=O [Compound 42]
EC50 [1]: 1400 nM
EC50 [2, 4]: 81000 nM
melting point: 230 to 235 °C

Cc1cc(/C=C2/Nc3ccn(CCN(C)C)c(=O)c3C2=O)c(C)n1-c1ccccc1C(F)(F)F [Compound 61]
decrease in EC50 value relative to the unsubstituted analogue 56 [1]: fivefold
EC50 [1]: 250 nM
EC50 [2, 7]: 35000 nM
melting point: 125 to 128 °C

CCOC(=O)C1=C(C)N/C(=C/c2cc(C)n(C3CCN(CC(C)(C)C)CC3)c2C)C1=O [Compound 23]
EC50 [1]: 58 nM
EC50 [2, 4]: 88000 nM
melting point: 139 to 142 °C

CCOC(=O)C1=C(C)N/C(=C/c2cc(C)n(C3CCN(Cc4nccn4C)CC3)c2C)C1=O [Compound 49]
EC50 [1]: 1000 nM
EC50 [2, 4]: 16000 nM
melting point: 186 to 189 °C

CCOC(=O)C1=C(C)N/C(=C/c2cc(C)n(C3CCN(CCc4ccc(C(F)(F)F)cc4)CC3)c2C)C1=O [Compound 33]
EC50 [1]: 130 nM
EC50 [2, 4]: 19000 nM

CCOC(=O)C1=C(C)N/C(=C/c2cc(C)n(C3CCN(CCN4CCCCC4)CC3)c2C)C1=O [Compound 38]
EC50 [1]: 2400 nM
EC50 [2, 4]: 97000 nM
melting point: 122 to 125 °C

CCCN1CCC(n2c(C)cc(/C=C3/NC(C)=C(C(=O)OCC)C3=O)c2C)CC1 [Compound 22]
EC50 [1]: 1100 nM
EC50 [2, 4]: 6600 nM
melting point: 145 to 148 °C

CCOC(=O)C1=C(C)N/C(=C/c2cc(C)n(C3CCN(Cc4ccc(N5CCOCC5)cc4)CC3)c2C)C1=O [Compound 54]
EC50 [1]: 2600 nM
EC50 [2, 4]: 53000 nM
melting point: > 280 °C

CCOC(=O)C1=C(C)N/C(=C/c2cc(C)n(C3CCN(Cc4cnc(N5CCOCC5)nc4)CC3)c2C)C1=O [Compound 53]
EC50 [1]: 75 nM
EC50 [2, 4]: 28000 nM
melting point: 194 to 199 °C

CCOC(=O)C1=C(C)N/C(=C/c2cc(C)n(C3CCN(C)CC3)c2C)C1=O [Compound 19]
EC50 [1]: 1400 nM
EC50 [2, 4]: 7800 nM
melting point: 130 to 135 °C

CCOC(=O)C1=C(C)N/C(=C/c2cc(C)n(C3CCN(CCN4CCOCC4)CC3)c2C)C1=O [Compound 37]
EC50 [1]: 5300 nM
EC50 [2, 4]: 89000 nM
melting point: 115 to 118 °C

CCOC(=O)C1=C(C)N/C(=C/c2cc(C)n(C3CCN(Cc4ccccc4C(F)(F)F)CC3)c2C)C1=O [Compound 29]
EC50 [1]: 0.5 nM
EC50 (P. falciparum K1) [1]: sub-nanomolar
EC50 [2, 4]: 1700 nM
solubility [3, 9]: > 125 µM

Cc1cc(/C=C2/Nc3ccn(Cc4ccccc4)c(=O)c3C2=O)c(C)n1-c1ccccc1C(F)(F)F [Compound 62, (E)-5-Benzyl-2-((2,5-dimethyl-1-(2-(trifluoromethyl)phenyl)-1H-pyrrol-3-yl)methylene)-1H-pyrrolo[3,2-c]pyridine-3,4(2H, 5H)dione]
drop / loss in activity (fold) [1]: fivefold
EC50 [1]: 230 nM
EC50 [2, 7]: 43000 nM
melting point: 195 to 200 °C

CCOC(=O)C1=C(C)N/C(=C/c2cc(C)n(C3CCN(CC4CC4)CC3)c2C)C1=O [Compound 39]
EC50 [1]: 3500 nM
EC50 [2, 4]: 14000 nM
melting point: 142 to 146 °C

Reference: publication PMC3963473, “Structure–Activity Relationship Studies of Pyrrolone Antimalarial Agents” (Chemmedchem, 2013)
